Test results as given in patent publication US11519859B2, “Rhodol-based thallium sensors for high-throughput screening of potassium channels” (priority 2018, dated 2022).
“And” between values parts separate entries of the source, which are not always exact repeats. Identical values can stand only once.

Tests used:
[1] = Compound storage as DMSO stock solutions; format: physicochemical; conditions: 10 mM stock solutions in DMSO at −20° C.
Procedure: Compounds 8a-m were dissolved in DMSO and stored as 10 mM stock solutions at −20° C. […] To prevent this, dry aliquots of 8a were prepared and dissolved in DMSO immediately before use.

[2] = test system: HEK-293 cells co-expressing GIRK1 and GIRK2; conditions: dye loading 1 h, 1 mM Tl^+ stimulus; for on/off (Tl^+ flux assay), maximum fold increase in fluorescence after Tl^+ addition: 10 μM ML297, 2 mM Allura Red AC, n = 6
Procedure: HEK-293 cells co-expressing GIRK1 and GIRK2 were cultured to 80% confluence in a T75 flask (Techno Plastic Products, Trasadingen, CH) at 37° C. and 5% CO2 in medium consisting of Minimal Essential Medium (Cellgro, Manassas, Va.) containing 1× Glutagro (Cellgro, Manassas, Va.) and 10% (v/v) heat-inactivated fetal bovine serum (Life Technologies, Carlsbad, Calif.). The cells were dislodged by treatment with TrypLE (Gibco/Life Technologies, Carlsbad, Calif.), diluted in medium, and plated on clear bottomed, black-walled, amine coated 384 well plates (BD Biosciences, Billerica, Mass.) at a density ˜20,000 cells per well. The plated cells were incubated overnight at 37° C. and 5% CO2 and used for the assay the next day.
Dye loading solutions of Thallos were prepared by dissolving a 25 μg aliquot in 30 μL of 6.7% Pluoronic F-127 (w/v) in DMSO and diluting the resulting solution 1:1000 into assay buffer. Culture medium was removed and replaced with 20 μL of dye loading buffer and incubated in the dark at room temperature for 1 h.
Assay—Assays were conducted on a WaveFront Biosciences Panoptic 1 or 2 (WaveFront Biosciences, Franklin, Tenn.) as indicated. Dye loading solutions were removed and replaced with assay buffer immediately before imaging unless otherwise noted. 10 s following commencement of plate imaging, 20 μL of compound at 2.5× concentration in assay buffer was added and incubated for 120 s at which point 10 μL of Tl^+ at 5× concentration in stimulus buffer (125 mM NaHCO3, 1.8 mM CaSO4, 1 mM MgSO4, 5 mM glucose, 10 mM HEPES, pH 7.4, and T12SO4), and images taken for the following 120 s.
1 mM of T12SO4 (final concentration) was used for stimulus. Assay and stimulus buffers were supplemented with 2 mM of Allura Red AC. […] On/off ratios were calculated by dividing the fluorescence intensity after saturation following Tl^+ addition by the fluorescence intensity immediately after compound addition (n=6).

[3] = Determination of photochemical properties of saponified dyes; format: physicochemical; conditions: for λem (fluorescence emission maximum) / λmax (absorption maximum) / ε (molar absorptivity): after saponification, 150 mM KCl, 10 mM HEPES, 50 μM EDTA, pH = 7.22; for ε (molar absorptivity): at λmax
Procedure: Evaluation of the photochemical properties of the active Thallium sensing species was accomplished by saponifying 10 μL of each pro-dye stock solution by incubating with 90 μL of 0.1 M KOH for 20 min at 37° C. with the exception of 8b which was treated with 1% NH4OH for 1 h at 37° C. The saponified compounds were diluted into 150 mM KCl buffered with 10 mM HEPES, pH=7.22 with 50 μM of EDTA. All photochemical measurements were taken in this buffer. Absorbance and fluorescence emission spectra were recorded on a Molecular Devices Spectromax M5 using polystyrene cuvettes with path length=1 cm at 23° C. Molar absorptivities are reported for λmax. The emission wavelengths monitored for recording excitation spectra, the excitation wavelengths used for recording emission spectra, and the corresponding emission cutoff filters used are listed in Table 2 below, and representative excitation and emission spectra are shown in FIG. 7.
To determine the in vitro photochemical properties of the active Tl^+ sensing species, 8a-m were treated with base to remove the acetoxymethyl esters and aryl acetate and then diluted into 10 mM HEPES buffered 150 mM KCl with 50 μM EDTA at pH=7.22.

[4] = test system: HEK-293 cells co-expressing GIRK1 and GIRK2; assay: Fold increase in dye fluorescence in Tl+ flux assay with ML297 concentration series; format: cell-based
Text: ML297 concentration response curves—In general, all concentration-response data were collected on a WaveFront Biosciences Panoptic 2. Thallos treated cells were imaged using 482/35 nm excitation and 536/40 nm emission filters. 8c treated cells were imaged using 529/24 nm excitation and 565/24 nm emission filters (unless otherwise noted). FluxOR Red treated cells were imaged using 544/24 nm excitation and 593/40 nm emission filters (all filters purchased from Semrock, Rochester, N.Y.). FluxOR Red reagent was prepared according to the manufacturer's procedure. 5 μM of 8c was used for dye loading for all conditions.
FluxOR Red procedure with background suppressor. The manufacturer's procedure was followed with the exceptions that the dye loading solution was replaced with 20 μL of assay buffer, solutions of ML297 were prepared in assay buffer plus background suppressor, 20 μL of compound solution was added and 10 μL stimulus buffer (basal) was added according to the general assay protocol described above.
FluxOR Red procedure without background suppressor. The FluxOR Red manufacturer's procedure was followed except the background suppressor was replaced by H2O in all buffers.
Bicarbonate buffer with Allura Red AC. […]
The fluorescence intensity values of the first 6 time points for each well were averaged and the fluorescence intensity for all time points in the well was divided by this value to provide F/Fo for each time point. The average F/Fo of the vehicle control was then subtracted from each curve and the normalized, control subtracted fluorescence intensity value was sampled at a time point several seconds after Tl^+ addition. […] Fold increases in fluorescence reported in the main paper were calculated by averaging F/Fo between 100 and 110 s after Tl^+ addition. […]
The performance of 8c was evaluated in a Tl^+ flux assay to generate a concentration response curve (CRC) of the GIRK activator ML297. […] Normalized, control subtracted fluorescence intensity values were sampled along the curves following Tl^+ addition at each concentration and a CRC was fit using GraphPad Prism (FIG. 3B).

| SMILES | stability on storage [1] | on/off (Tl^+ flux assay), maximum fold increase in fluorescence after Tl^+ addition [2] | λem (fluorescence emission maximum) [3] | λmax (absorption maximum) [3] | ε (molar absorptivity) [3] | fold increase in fluorescence at the highest ML297 concentration ([4]; FluxOR Red kit procedure with background suppressor, 10 μM ML297, F/Fo 100-110 s after Tl^+) | fold increase in fluorescence at the highest ML297 concentration ([4]; FluxOR Red kit procedure without background suppressor) | fold increase in fluorescence ([4]; bicarbonate stimulus buffer, 500 μM Tl^+, no-wash, 1 mM Allura Red AC) | fluorescence and response to Tl^+ in cells (in words) [2] | fluorescence of saponified dye (in words) ([3]; reason why spectra were not recorded) |
| --- | --- | --- | --- | --- | --- | --- | --- | --- | --- | --- |
| COc1cc(NC(=O)c2ccc3c(c2)C(=O)OC32c3ccc(N)cc3Oc3cc(OC(C)=O)ccc32)ccc1N(CC(=O)OCOC(C)=O)CC(=O)OCOC(C)=O (stereo not shown) [Compound 8a, bis(acetoxymethyl) 2,2′-((4-(3′-acetoxy-6′-amino-3-oxo-3H-spiro[isobenzofuran-1,9′-xanthen]-5-ylcarboxamido)-2-methoxyphenyl)azanediyl)diacetate] | appeared to undergo transacetylation | 3.02 ± 0.08 fold | 520 nm | 496 nm | 57000 M⁻¹ cm⁻¹ | – | – | – | – | – |
| COc1cc(NC(=O)c2ccc3c(c2)C(=O)OC32c3ccc(OC(C)=O)cc3Oc3cc(N(C)C)ccc32)ccc1N(CC(=O)OCOC(C)=O)CC(=O)OCOC(C)=O (stereo not shown) [Compound 8c, bis(acetoxymethyl) 2,2′-((4-(3′-acetoxy-6′-(dimethylamino)-3-oxo-3H-spiro[isobenzofuran-1,9′-xanthene]-5-carboxamido)-2-methoxyphenyl)azanediyl)diacetate] | – | 4.21 fold and 4.21 ± 0.04 fold | 551 nm | 521 nm | 56000 M⁻¹ cm⁻¹ | 3.09±0.004 fold | 2.87±0.004 fold | 3.40±0.009 fold | – | – |
| COc1cc(NC(=O)c2ccc3c(c2)C(=O)OC32c3ccc(Nc4ccccc4)cc3Oc3cc(OC(C)=O)ccc32)ccc1N(CC(=O)OCOC(C)=O)CC(=O)OCOC(C)=O (stereo not shown) [Compound 8i, bis(acetoxymethyl) 2,2′-((4-(3′-acetoxy-3-oxo-6′-(phenylamino)-3H-spiro[isobenzofuran-1,9′-xanthen]-5-ylcarboxamido)-2-methoxyphenyl)azanediyl)diacetate] | – | 1.07 ± 0.01 fold | – | 517 nm | 52000 M⁻¹ cm⁻¹ | – | – | – | minor increase in fluorescence | very weak fluorescence |
| COc1cc(NC(=O)c2ccc3c(c2)C(=O)OC32c3ccc(OC(C)=O)cc3Oc3cc(N4CCC4)ccc32)ccc1N(CC(=O)OCOC(C)=O)CC(=O)OCOC(C)=O (stereo not shown) [Compound 8j, bis(acetoxymethyl) 2,2′-((4-(3′-acetoxy-6′-(azetidin-1-yl)-3-oxo-3H-spiro[isobenzofuran-1,9′-xanthen]-5-ylcarboxamido)-2-methoxyphenyl)azanediyl)diacetate] | – | 3.92 ± 0.13 fold | 550 nm | 522 nm | 56000 M⁻¹ cm⁻¹ | – | – | – | – | – |
| COc1cc(NC(=O)c2ccc3c(c2)C(=O)OC32c3ccc(OC(C)=O)cc3Oc3cc(N4CC(F)(F)C4)ccc32)ccc1N(CC(=O)OCOC(C)=O)CC(=O)OCOC(C)=O (stereo not shown) [Compound 8k, bis(acetoxymethyl) 2,2′-((4-(3′-acetoxy-6′-(3,3-difluoroazetidin-1-yl)-3-oxo-3H-spiro[isobenzofuran-1,9′-xanthen]-5-ylcarboxamido)-2-methoxyphenyl)azanediyl)diacetate] | – | 2.02 ± 0.04 fold | 530 nm | 506 nm | 66000 M⁻¹ cm⁻¹ | – | – | – | almost half the response to Tl^+ | – |
| COc1cc(NC(=O)c2ccc3c(c2)C(=O)OC32c3ccc(OC(C)=O)cc3Oc3cc(N4CCCC4)ccc32)ccc1N(CC(=O)OCOC(C)=O)CC(=O)OCOC(C)=O (stereo not shown) [Compound 8l, bis(acetoxymethyl) 2,2′-((4-(3′-acetoxy-3-oxo-6′-(pyrrolidin-1-yl)-3H-spiro[isobenzofuran-1,9′-xanthen]-5-ylcarboxamido)-2-methoxyphenyl)azanediyl)diacetate] | – | 3.54 ± 0.07 fold | 553 nm | 525 nm | 39000 M⁻¹ cm⁻¹ | – | – | – | – | – |
| COc1cc(NC(=O)c2ccc3c(c2)C(=O)OC32c3ccc(OC(C)=O)cc3Oc3cc(N4CCCCC4)ccc32)ccc1N(CC(=O)OCOC(C)=O)CC(=O)OCOC(C)=O (stereo not shown) [Compound 8m, bis(acetoxymethyl) 2,2′-((4-(3′-acetoxy-3-oxo-6′-(piperidin-1-yl)-3H-spiro[isobenzofuran-1,9′-xanthen]-5-ylcarboxamido)-2-methoxyphenyl)azanediyl)diacetate] | – | 3.09 ± 0.04 fold | 557 nm | 526 nm | 48000 M⁻¹ cm⁻¹ | – | – | – | – | – |
